Results taken from patent US8853264B2, “Use of lignan compounds for treating or preventing inflammatory disease” (Newtree Industry Co., Ltd., priority 2005, dated 2014).

Columns and labels:
IL-4 secreting cells = assay: Counting of IL-4 secreting cells in the lungs (ELISpot), asthma model; type: in vivo, C57BL/6 (B6) male mice; conditions: oral 400 μg/g and 800 μg/g; vs vehicle (corn oil) group
Protocol: 5 μL of allergen, AP (aspergillus protease, 1 mg/mL, Sigma-Aldrich, St. Louis, Mo.) was mixed with 45 μL of OVA (chicken egg ovalbumin, 0.5 mg/mL, Sigma-Aldrich). After 3 intraperitoneal injections with 4-day intervals, asthma was induced by 2 intranasal challenges with 4-day interval. The intranasal challenge was performed under isoflurane inhalational anesthesia. Macelignan dissolved in corn oil was orally administered every day.
Within 24 hours after the last allergen challenge, the mouse was anesthetized by intraperitoneal injection of 0.1 mg/g sodium pentobarbital. After tracheal intubation, flexiVent (Scireq®, Montreal, Canada) was connected to maintain stable ventilation. Thereafter, striated muscle was relaxed by intravenous (IV) administration of 0.08 mg/kg pancuronium (Sigma-Aldrich). Following airway hypersensitivity test by IV administration of acetylcholine (Sigma-Aldrich), 1 mL of DPBS (Dulbecco's phosphate buffered saline) was injected twice into the intubation tube using a syringe for bronchioalveolar lavage. Thereafter, the chest was opened and the lungs were subjected to ELISpot assay. […]
When asthma is induced in a mouse, Th2 cells in the lungs increase. […] After addition of substrate dissolved in 0.6% low melting agarose followed by incubation at 4° C., spots were counted within 24 hours to count the number of IL-4 secreting cells in the lungs.

[1] = Skin barrier recovery test (TEWL, skin hydration, erythema index), atopic dermatitis model; type: in vivo, NC/Nga mice
Protocol: 8-week-old NC/Nga mice (20-25 g) were purchased from Chungang Lab. Animal. After adapting for 1 week, the NC/Nga mouse was anesthetized with 90% ethyl ether (Ducsan, Korea) and hair was removed from the occipital region and the back of the mouse using depilatory cream (Reckitt Benckiser, France). After allowing micro wound healing for a day, 100 mg of mite antigen cream (Biostir, Inc. Japan) comprising Dermatophagoides farina, which causes atopic dermatitis, as a main ingredient was evenly applied on the ear, occipital region and back, 3 times a week (for 5 weeks, from week 9 to week 13). 2 hours before application of the mite antigen cream, 4% SDS solution was applied at the same area to increase transdermal absorption of the mite antigen cream by inducing the breakdown of skin fats and cuticle layer. From week 3 following the application, IgE value was measured to quantitate the degree of atopic dermatitis. Also during the drug treatment period (week 12 to week 13), 100 mg of the mite antigen cream was applied 3 times a week to prevent spontaneous healing of the atopic dermatitis.
In order to induce atopic dermatitis, 100 mg of mite antigen cream was applied on the ear, occipital region and back of NC/Nga mouse (9 to 11 weeks old), except for the negative control group, 3 times a week, 2 hours after the application of 4% SDS solution. Three weeks later, it was observed whether atopic dermatitis was induced by checking skin rash, erythema, cornification, or the like. Atopic dermatitis was induced in all groups except for the negative control group. For drug treatment and evaluation of therapeutic effect, mice were grouped into 12 groups, 6 oral administration groups and 6 topical application groups (each consisting of negative control group, positive control group, macelignan low conc. group, macelignan high conc. group, nutmeg extract low conc. group, and nutmeg extract high conc. group), with n=5 per cage. During the following drug treatment and evaluation period of 2 weeks (12 to 13 weeks old), the negative control groups, which had not been treated with 4% SDS solution and mite antigen cream, were treated with physiological saline (oral administration group) or base cream (topical application group) every day, and the positive control groups, which had been treated with 100 mg of mite antigen cream 2 hours after application of 4% SDS solution, 3 times every week, were treated with physiological saline (oral administration group) or base cream (topical application group). The oral administration groups were treated with 100 mg of mite antigen cream 2 hours after application of 4% SDS solution, 3 times every week, and were treated with macelignan or nutmeg extract at low concentration (50 mg/kg/day) or high concentration (150 mg/kg/day) every day. The topical application groups were treated with 100 mg of mite antigen cream 2 hours after application of 4% SDS solution, 3 times every week, and were treated with macelignan cream or nutmeg extract cream at low concentration (20 mg/kg/day) or high concentration (60 mg/kg/day) every day. Transepidermal water loss (TEWL), skin hydration and erythema index were measured one day before the end of the test. Serum was obtained by retro-orbital blood sampling. After the end of the test (14 weeks old) spleen and skin tissues from occipital region and back were sampled and stored at −70° C. ALN (axillary lymph node) was stored in DMEM containing 2% FBS (fetal bovine serum). The skin tissues were stored in 10% formalin solution.
One day before the end of the experiment, TEWL, skin hydration and erythema index were measured to quantitatively compare recovery of skin barrier. TEWL was measured with a tewameter (TM300), skin hydration with a corneometer (CM825), and erythema index with a mexameter (MX18).

[2] = oral administration 50 mg/kg/day
[3] = oral administration 150 mg/kg/day
[4] = oral administration 50 and 150 mg/kg, p<0.01
[5] = topical application 20 mg/kg/day
[6] = topical application 60 mg/kg/day
[7] = topical application 20 and 60 mg/kg, p<0.01

COc1cc(C[C@H](C)[C@H](C)Cc2ccc3c(c2)OCO3)ccc1O (single isomer, unassigned) [macelignan]
IL-4 secreting cells in the lungs (IL-4 secreting cells): decreased IL-4 secreting cells
Erythema Index [1, 2]: 198.5 ± 46.8
Skin Hydration [1, 2]: 5.0 ± 0.8 AU
TEWL [1, 2]: 17.6 ± 8.1 g/hr · m^2
Erythema Index [1, 3]: 190 ± 24.4
Skin Hydration [1, 3]: 6.4 ± 2.8 AU
TEWL [1, 3]: 21.5 ± 9.2 g/hr · m^2
skin hydration compared to the positive control group ([1]; oral administration 50 and 150 mg/kg): effect of increasing skin hydration
TEWL compared to the positive control group [1, 4]: statistically significant effect of suppressing TEWL
erythema index compared to the positive control group [1, 4]: statistically significant effect of decreasing erythema index
Erythema Index [1, 5]: 163.3 ± 4.0
Skin Hydration [1, 5]: 12.4 ± 3.9 AU
TEWL [1, 5]: 25.8 ± 3.1 g/hr · m^2
Erythema Index [1, 6]: 190 ± 24
Skin Hydration [1, 6]: 13.4 ± 4.7 AU
TEWL [1, 6]: 26.2 ± 4.9 g/hr · m^2
TEWL compared to the positive control group [1, 7]: statistically significant effect of suppressing TEWL
erythema index compared to the positive control group [1, 7]: statistically significant effect of decreasing erythema index
skin hydration compared to the positive control group [1, 7]: statistically significant effect of increasing skin hydration
